Assay results taken from patent publication EP4119547A1, “TRIAZOLE COMPOUNDS FOR THE CONTROL OF INVERTEBRATE PESTS” (priority 2021, dated 2023).

Columns and labels:
Format in all cases: in vivo
[1] = system: Diamond back moth (Plutella xylostella); experiment: Diamond back moth leaf-dip test on cabbage leaves; conditions: cabbage leaves dipped, 3rd instar larvae, 72 hours after treatment, read-out: mortality in comparison with untreated controls
Experimental: The active compound was dissolved at the desired concentration in a mixture of 1:1 (vol:vol) distilled water: acetone. Surfactant (Kinetic HV) was added at a rate of 0.01% (vol/vol). The test solution was prepared on the day of use.
Leaves of cabbage were dipped in test solution and air-dried. Treated leaves were placed in petri dishes lined with moist filter paper and inoculated with ten 3rd instar larvae. Mortality was recorded 72 hours after treatment. Feeding damages were also recorded using a scale of 0-100%.

[2] = system: Yellow fever mosquito (Aedes aegypti); experiment: whole plant or invertebrate; conditions: 48 h, larval mortality, 2 days, read-out: mortality in comparison with untreated controls
Experimental: For evaluating control of yellow fever mosquito (Aedes aegypti) the test unit consisted of 96-well-microtiter plates containing 200µl of tap water per well and 5-15 freshly hatched A. aegypti larvae.
The active compounds were formulated using a solution containing 75% (v/v) water and 25% (v/v) DMSO. Different concentrations of formulated compounds or mixtures were sprayed onto the insect diet at 2.5µl, using a custom-built micro atomizer, at two replications.
After application, microtiter plates were incubated at 28 ± 1°C, 80 ± 5 % RH for 2 days. Larval mortality was then visually assessed.

[3] = system: Green Peach Aphid (Myzus persicae); experiment: Green peach aphid systemic test, artificial diet under membrane in 96-well microtiter plates; conditions: 72 h, adult aphids on treated artificial diet, 3 days, read-out: mortality in comparison with untreated controls
Description: For evaluating control of green peach aphid (Myzus persicae) through systemic means, the test unit consisted of 96-well-microtiter plates containing liquid artificial diet under an artificial mem brane.
The compounds were formulated using a solution containing 75% v/v water and 25% v/v DMSO. Different concentrations of formulated compounds were pipetted into the aphid diet, using a custom built pipetter, at two replications.
After application, 5 - 8 adult aphids were placed on the artificial membrane inside the microtiter plate wells. The aphids were then allowed to suck on the treated aphid diet and incubated at about 23 ± 1°C and about 50 ± 5 % relative humidity for 3 days. Aphid mortality and fecundity was then visually assessed.

[4] = system: Tobacco budworm (Heliothis virescens); experiment: Tobacco budworm test, insect diet with eggs in 96-well microtiter plates; conditions: 120 h, egg and larval mortality, 5 days, read-out: mortality in comparison with untreated controls
Experimental: For evaluating control of tobacco budworm (Heliothis virescens), the test unit consisted of 96-well-microtiter plates containing an insect diet and 15-25 H. virescens eggs.
The compounds were formulated using a solution containing 75% v/v water and 25% v/v DMSO. Different concentrations of formulated compounds were sprayed onto the insect diet at 10 µl, using a custom-built micro atomizer, at two replications.
After application, microtiter plates were incubated at about 28 ± 1°C and about 80 ± 5 % relative humidity for 5 days. Egg and larval mortality was then visually assessed.

[5] = system: Orchid thrips (Dichromothrips corbetti); experiment: Orchid thrips floral-immersion test; conditions: adult thrips on dipped orchid petals, 72 hours after treatment, read-out: mortality in comparison with untreated controls
Experimental: Dichromothrips corbetti adults used for bioassay were obtained from a colony maintained continuously under laboratory conditions. For testing purposes, the test compound is diluted in a 1:1 mixture of acetone:water (vol:vol), plus Kinetic HV at a rate of 0.01% v/v.
Thrips control potency of each compound was evaluated by using a floral-immersion technique. All petals of individual, intact orchid flowers were dipped into treatment solution and allowed to dry in Petri dishes. Treated petals were placed into individual re-sealable plastic along with about 20 adult thrips. All test arenas were held under continuous light and a temperature of about 28°C for duration of the assay. After 3 days, the numbers of live thrips were counted on each petal. The percent mortality was recorded 72 hours after treatment.

[6] = system: Boll weevil (Anthonomus grandis); experiment: Boll weevil test, insect diet with eggs in 96-well microtiter plates; conditions: 120 h, egg and larval mortality, 5 days, read-out: mortality in comparison with untreated controls
Experimental: For evaluating control of boll weevil (Anthonomus grandis), the test unit consisted of 96-well-microtiter plates containing an insect diet and 5-10 A. grandis eggs.
The compounds were formulated using a solution containing 75% v/v water and 25% v/v DMSO. Different concentrations of formulated compounds were sprayed onto the insect diet at 5 µl, using a custom-built micro atomizer, at two replications.
After application, microtiter plates were incubated at about 25 ± 1°C and about 75 ± 5 % relative humidity for 5 days. Egg and larval mortality was then visually assessed.

CC(=NO)n1ncnc1C(C)NC(=O)c1cc(C(F)(F)F)cc(C(F)(F)F)c1 (stereo not shown) [I-1, N-[1-[2-[N-hydroxy-C-methyl-carbonimidoyl]-1,2,4-triazol-3-yl]ethyl]-3,5-bis(trifluoromethyl)benzamide]
≥ 75%: mortality at 300 ppm [1] | mortality at 2500 ppm [2] | mortality at 2500 ppm [3] | mortality at 2500 ppm [4]

CO/N=C(/C)n1ncnc1C(C)NC(=O)c1cc(C(F)(F)F)cc(C(F)(F)F)c1 (stereo not shown) [I-3, N-[1-[2-[(Z)-N-methoxy-C-methyl-carbonimidoyl]-1,2,4-triazol-3-yl]ethyl]-3,5-bis(trifluoromethyl)benzamide]
≥ 75%: mortality at 300 ppm [1] | mortality at 2500 ppm [2] | mortality at 300 ppm [5] | mortality at 2500 ppm [6] | mortality at 2500 ppm [3] | mortality at 2500 ppm [4]

CO/N=C(\C)n1ncnc1C(C)NC(=O)c1cc(C(F)(F)F)cc(C(F)(F)F)c1 (stereo not shown) [I-4, N-[1-[2-[(E)-N-methoxy-C-methyl-carbonimidoyl]-1,2,4-triazol-3-yl]ethyl]-3,5-bis(trifluoromethyl)benzamide]
≥ 75%: mortality at 300 ppm [1] | mortality at 2500 ppm [2] | mortality at 300 ppm [5] | mortality at 2500 ppm [6] | mortality at 2500 ppm [3] | mortality at 2500 ppm [4]
